Source: PMC8605241, “Coevolution of the bacterial pheromone ComS and sensor ComR fine-tunes natural transformation in streptococci” (The Journal of Biological Chemistry, 2021)
Residues, ends and D or L forms follow the SMILES beside them.

Experiments:
ComRSth WT = ComRSth WT (Streptococcus thermophilus, UniProt A0A1L1QK15); assay type: cell-based; conditions: for EC50: read-out: EC50 of PcomS activity (maximum specific luciferase activity), synthetic 8-aa peptide added to S. thermophilus ΔcomS reporter strain (PcomS-luxAB), Hill fit, mean ± SD of at least three independent replicates, SD; for effect of XIP-5 substitution on activation (titration of synthetic XIPSth variants): compared with XIPSth WT (A5), PcomS-luxAB
Protocol: (§1) Luciferase assays were performed as previously described ([19]). Overnight precultures were diluted to a final OD600 of 0.05 and culture samples incubated in a sterile covered white microplate with a transparent bottom (Greiner). Growth and luciferase activity (expressed in relative light units [RLUs]) of the cultures were monitored after addition or in absence of synthetic XIP peptide at 10 min intervals during at least 8 h in a multiwell plate reader (Hidex Sense, Hidex). When peptides were titrated, 0, 0.78, 1.56, 3.12, 6.25, 12.5, 25, 50, 100, and 1000 nM were added to the medium.

[1] = biological target: ComRSth-StreptagII protein (Streptococcus thermophilus ComR) (Streptococcus thermophilus)
ComRSve WT = test: PcomS-luxAB luciferase reporter assay, S. thermophilus strain with ComRSth replaced by ComRSve; assay type: cell-based, Streptococcus vestibularis; conditions: reporter strain carrying ComRSve; for decrease of activation compared with wild-type XIPSve: synthetic peptide
Protocol: as §1

ComRSth [2] = biological target: T1, ComRSth (Streptococcus thermophilus, UniProt A0A1L1QK15); test: biochemical; conditions: SD
Protocol: In the case of competition assays, a fixed concentration of ComR (250 nM) and FITC N-labeled XIP peptide (30 nM) were incubated with twofold serial dilutions of unlabeled XIP variant (initial concentration of 5 μM). Plots were fitted by using GraphPad Prisma software to calculate IC50 values (half-maximal inhibitory peptide concentration).

[3] = biological target: FITC N-labeled XIP-A5M peptide (9 aa) (Streptococcus thermophilus); test: fluorescence polarisation; 30 nM FITC N-labeled 9-aa XIP peptide, threefold serial dilutions of purified ComR from 1 uM, 10 min at 30 °C, 96-well plates; EC50 by Hill fit
ComR-F171A = test: PcomS-luxAB luciferase reporter assay, ComR-F171A strain; assay type: cell-based, Streptococcus thermophilus; conditions: substitution added to XIP-L1A; ComR-F171A mutant strain
Protocol: Luciferase assays were performed as previously described ([19]). Overnight precultures were diluted to a final OD600 of 0.05 and culture samples incubated in a sterile covered white microplate with a transparent bottom (Greiner). Growth and luciferase activity (expressed in relative light units [RLUs]) of the cultures were monitored after addition or in absence of synthetic XIP peptide at 10 min intervals during at least 8 h in a multiwell plate reader (Hidex Sense, Hidex). When peptides were titrated, 0, 0.78, 1.56, 3.12, 6.25, 12.5, 25, 50, 100, and 1000 nM were added to the medium. In order to calculate EC50 values (peptide concentration for a half maximum response), maximum luciferase activity values were fitted to Hill equation: L=Lmax×[XIP]^n/(EC50)^n+[XIP]^n where L is the luciferase activity, [XIP] is the XIP concentration, and n is the Hill coefficient. Curves were fitted with the GraphPad Prism software v.9.0.1 (GraphPad Software, Inc).

ComRSth [4] = biological target: T1, ComRSth; test: Single-molecule force spectroscopy (AFM); assay type: binding; conditions: polyG-linked peptide grafted on AFM tip, ComRSth on gold-coated coverslip
Protocol: Gold-coated glass coverslips and cantilevers (OMCL-TR4, Olympus Ltd; nominal spring constant ∼0.02 N m^−1) were immersed overnight in an ethanol solution containing 1 mM of 10% 16- […]/90% 1-mercapto-1-undecanol (Sigma), rinsed with ethanol and dried with N2. Substrates and cantilevers were then immersed for 30 min into a solution containing 10 mg ml^−1 N-hydroxysuccinimide (NHS) and 25 mg ml^−1 1-ethyl-3-(3-dimethylaminopropyl)-carbodiimide (EDC) (Sigma), rinsed with Ultrapure water (ELGA LabWater), incubated with 0.1 mg ml^−1 ComR or polyG-XIPSth, polyG-XIP-A5M, or polyG-XIPSve peptides for 1 h, rinsed further with PBS buffer, and then immediately used without dewetting.
For experiments of single-molecule force spectroscopy, ComR-functionalized surfaces and functionalized cantilevers with polyG-peptides were prepared as described above. Measurements were performed at room temperature in PBS with a Force Robot 300 AFM (JPK Instruments). Multiple (32 × 32) force–distance curves were recorded on areas of 500 by 500 nm^2 with an applied force of 250 pN, a constant approach, and retraction speed of 1000 nm s^−1. […] The spring constants of the cantilevers were measured by the thermal noise method ([50]). Data were analyzed with the data processing software from JPK Instruments.

[5] = biological target: T2, ComRSth-StreptagII protein (Streptococcus thermophilus ComR) (Streptococcus thermophilus); test: FP; competition with FITC-XIP-A5M
T2 chain: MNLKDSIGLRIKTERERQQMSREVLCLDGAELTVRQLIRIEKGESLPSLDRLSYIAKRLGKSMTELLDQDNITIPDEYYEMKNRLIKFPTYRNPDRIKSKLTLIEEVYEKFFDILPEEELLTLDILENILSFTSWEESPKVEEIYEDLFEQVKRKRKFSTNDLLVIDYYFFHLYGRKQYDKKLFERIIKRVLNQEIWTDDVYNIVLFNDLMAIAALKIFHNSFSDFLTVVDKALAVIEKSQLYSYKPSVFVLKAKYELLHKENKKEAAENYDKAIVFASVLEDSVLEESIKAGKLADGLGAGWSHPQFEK

PYFAGCL [XIPSth-ΔL1]
decrease of activity (fold less active) (ComRSth WT; synthetic 7-aa peptide, ComRSth WT reporter strain): ~90 fold

CSCC[C@H](NC(=O)[C@H](Cc1ccccc1)NC(=O)[C@H](Cc1ccc(O)cc1)NC(=O)[C@@H]1CCCN1C(=O)[C@@H](N)C(C)C)C(=O)NCC(=O)N[C@@H](CS)C(=O)N[C@@H](CC(C)C)C(=O)O [XIP-L1V-A5M] (H-VPYFMGCL-OH)
EC50 (ComRSth WT): 1.36 ± 0.33 nM | EC50 compared with wild-type XIPSth (ComRSth WT; synthetic peptide, ΔcomS reporter strain, PcomS as proxy): approximately fourfold lower

LPYFTGCL [XIP-A5T]
effect of XIP-5 substitution on activation (titration of synthetic XIPSth variants) (ComRSth WT; ΔcomS reporter strain): neutral

XIP-L1A-A5M (synthetic octapeptide)
P (comS)-luxAB luciferase reporter in S. thermophilus cells producing ComRSth WT; fold change in EC50 against the reference XIP-L1A (substitution A5M) [1]: 10.4 fold

PFFMIYY [XIPSve-ΔV1, 7-aa XIPSve variant PFFMIYY]
activation of ComRSve (in words) (ComRSve WT; synthetic 7-aa peptide): completely abolished

VPFFAIYY [XIPSve-M5A]
decrease of activation compared with wild-type XIPSve (ComRSve WT): ~40 fold

CC(C)C[C@H](NC(=O)[C@H](CS)NC(=O)CNC(=O)[C@H](C)NC(=O)[C@H](Cc1ccccc1)NC(=O)[C@H](Cc1ccc(O)cc1)NC(=O)[C@@H]1CCCN1C(=O)[C@@H](N)CC(C)C)C(=O)O [XIPSth, reference compound] (H-LPYFAGCL-OH)
EC50 (ComRSth WT): 4.4 ± 1.12 nM | IC50 (ComRSth [2]): 254 ± 49.7 nM

ComRSth-StreptagII protein (Streptococcus thermophilus ComR) (natural protein)
fold lower EC50 than FITC-XIPSth [3]: 2 fold

APYFMGCL [XIPSth-L1A-A5M]
increased activation (fold change in EC50) with XIP-L1A (A1–A5) as reference (ComRSth WT; substitution added to XIP-L1A, ComRSth WT reporter strain): 10.4 fold | increased activation (fold change in EC50) with XIP-L1A as reference (ComR-F171A): 1.3 fold

APFFMIYY [XIPSve-V1A]
decrease of activation compared with wild-type XIPSve (ComRSve WT): ~130 fold

VPFFMIYY [XIPSve]
binding frequency / binding probability (ComRSth [4]): ~2% | median binding (adhesion) force (ComRSth [4]; PBS, room temperature, about 1000 curves per surface): 58 pN

LPYFIGCL [XIP-A5I]
effect of XIP-5 substitution on activation (titration of synthetic XIPSth variants) (ComRSth WT; ΔcomS reporter strain): improved transcriptional activation but at a lower level than A5M

B1: XIPSth-ΔL1 (7 aa) (peptide)
peptide: PYFAGCL
P (comS)-luxAB luciferase reporter in S. thermophilus cells producing ComRSth WT; activity against XIPSth WT (fold less active) [1]: 90

B2: XIPSth (Streptococcus thermophilus XIP, synthetic octapeptide) (peptide)
peptide: LPYFAGCL
P (comS)-luxAB luciferase reporter in S. thermophilus cells producing ComRSth WT; fold change in EC50 against the reference XIP-L1A (substitution A1L) [1]: 2.7 fold | IC50 [5]: 254 nM
